Test results: patent US12414960B2, “Analogues of oleuropein and oleacein and uses thereof” (Attica Sciences Ltd., priority 2020, dated 2025)
Where two headings read alike, the source gives them in different places.

What was measured:
ATP-citrate lyase (ACLY) = biological target: T1, ATP-citrate lyase (ACLY) (Homo sapiens, UniProt P53396); assay: ACLY Assay Kit (ADP-Glo) enzymatic activity; format: biochemical
T1 construct: purchased BPS Bioscience
T1 sequence (P53396 1-1101): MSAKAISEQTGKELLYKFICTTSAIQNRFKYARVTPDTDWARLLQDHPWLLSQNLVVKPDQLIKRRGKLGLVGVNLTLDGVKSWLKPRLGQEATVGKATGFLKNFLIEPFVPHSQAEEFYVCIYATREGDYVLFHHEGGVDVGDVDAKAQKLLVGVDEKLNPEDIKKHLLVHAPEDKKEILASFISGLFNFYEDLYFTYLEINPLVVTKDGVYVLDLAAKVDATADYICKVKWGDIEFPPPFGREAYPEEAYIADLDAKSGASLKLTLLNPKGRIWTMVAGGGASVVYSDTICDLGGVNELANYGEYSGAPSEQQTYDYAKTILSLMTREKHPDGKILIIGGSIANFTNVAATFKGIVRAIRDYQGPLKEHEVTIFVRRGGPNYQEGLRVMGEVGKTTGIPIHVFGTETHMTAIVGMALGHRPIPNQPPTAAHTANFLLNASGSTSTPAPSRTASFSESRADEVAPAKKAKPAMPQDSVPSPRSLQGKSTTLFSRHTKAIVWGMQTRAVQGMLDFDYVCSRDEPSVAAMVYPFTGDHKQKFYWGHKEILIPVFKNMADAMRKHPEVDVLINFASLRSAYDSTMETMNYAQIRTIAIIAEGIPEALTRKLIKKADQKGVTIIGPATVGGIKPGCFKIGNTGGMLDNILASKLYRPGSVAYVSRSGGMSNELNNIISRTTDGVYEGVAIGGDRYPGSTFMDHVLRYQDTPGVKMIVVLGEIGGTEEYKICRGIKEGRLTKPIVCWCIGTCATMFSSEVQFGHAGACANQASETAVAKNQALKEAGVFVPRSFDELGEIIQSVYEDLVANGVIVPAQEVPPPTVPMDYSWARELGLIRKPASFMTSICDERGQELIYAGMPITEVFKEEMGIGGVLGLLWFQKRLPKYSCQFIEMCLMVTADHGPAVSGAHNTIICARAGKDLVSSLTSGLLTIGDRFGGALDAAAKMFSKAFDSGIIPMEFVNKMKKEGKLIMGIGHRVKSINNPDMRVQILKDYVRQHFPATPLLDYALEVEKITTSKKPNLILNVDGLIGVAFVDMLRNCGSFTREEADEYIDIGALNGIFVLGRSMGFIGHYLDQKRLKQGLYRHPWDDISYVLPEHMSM
Text: An ACLY Assay Kit (BPS Bioscience) was used to evaluate GS27 against ATP-citrate lyase (ACLY) enzymatic activity. The ACLY Assay Kit is designed to measure ACLY activity for screening and profiling applications using ADP-Glo™ Kinase Assay as a detection reagent (Promega #V6930). The ADP-Glo™ Kinase Assay is a luminescent ADP detection assay that provides a universal, homogeneous, high-throughput screening method to measure kinase activity by quantifying the amount of ADP produced during a kinase reaction. Multiple (1, 10, 100, 250, 500, 1000, 2000 nM) GS27 concentrations were used to evaluate GS27 IC50 activity.

[1] = tested on: HCT-116 colon cancer cells; assay: Cell Glo luminescence cell growth assay, HCT-116; format: cell-based, human; details: NS = not statistically significant; for inhibition at 1 µM: Homo sapiens, HCT-116, 24 h, read-out: Effectiveness to suppress HCT-116 cell growth (cell growth inhibition); for Effectiveness to suppress HCT-116 cell growth (cell growth inhibition): 1 uM, 24 h
Text: The CellTiter-Glo® Luminescent Cell Viability Assay (Promega Corporation; Madison, WI) is a homogeneous method of determining the number of viable cells in culture based on quantitation of the ATP present, an indicator of metabolically active cells. The homogeneous assay procedure involves adding the single reagent (CellTiter-Glo® Reagent) directly to cells cultured in serum-supplemented medium. The homogeneous “add-mix-measure” format results in cell lysis and generation of a luminescent signal proportional to the amount of ATP present. The amount of ATP is directly proportional to the number of cells present in culture.
Cancer cells (3,000 cells/well) were harvested in a 96-well plate. Then, the cancer cells were treated with GS compounds and incubated for 24 hours. The MT Cell Viability Substrate, NanoLuc® Enzyme and cell culture medium was equilibrated to 37° C. The 2× RealTime-Glo™ reagent was prepared by diluting the MT Cell Viability Substrate and NanoLuc® Enzyme in 37° C. cell culture medium to a 2× concentration for each reagent. For example, 1 mL of 2× RealTime-Glo™ reagent was prepared by adding 2 μL of MT Cell Viability Substrate, 1,000×, and 2 μL of NanoLuc® Enzyme, 1,000×, to 996 μL of cell culture medium to form the 2× RealTime-Glo™ reagent. Then, an equal volume of 2× RealTime-Glo™ reagent was added to the cancer cells. The cells were kept for ˜20 minutes in the cell culture incubator and then luminescence was measured by using a plate-reading luminometer.
HCT-116 is a human colorectal cancer cell lines that has a mutation in RAS proto-oncogene.
The effects of exemplary compounds on cancer cell lines and one non-tumorigenic cell line (control) were investigated using a high throughput screening assay. More specifically, the effects of the GS compounds on cell growth was evaluated by the XTT assay for cell lines HepG2, HeLa, MCF7 ER+, MDA-MB-231, and MKN-45, and by the Cell Glo luminescence assay for cell lines MIA PaCa-2, HCT-116, MCF-10A, and PANC-1.

[2] = same assay as GS27, read-out: IC50 against ACLY enzyme

IC50 (ATP-citrate lyase (ACLY); [2]) [µM]	Compound	inhibition at 1 µM [1] [%]	Effectiveness to suppress HCT-116 cell growth (cell growth inhibition) [1]	IC50 (ATP-citrate lyase (ACLY); 1-2000 nM tested, read-out: IC50 of ACLY activity) [µM]
> 10	C/C=C1/[C@H](O[C@@H]2O[C@H](CO)[C@@H](O)[C@H](O)[C@H]2O)OC=C(C(=O)OC)[C@H]1CC(=O)OCCc1ccc(O)c(O)c1 [GS1, oleuropein]			
> 10	C/C=C(/C=O)[C@@H](CC=O)CC(=O)OCCc1ccc(O)cc1 [GS19, (3S,4E)-4-formyl-3-(2-oxoethyl)-4-hexenoic acid 2-(4-hydroxyphenyl)ethyl ester, reference compound]	21.6		
	C/C=C(/C=O)[C@@H](CC=O)CC(=O)OCCCCCCCCCCCCCCCC [GS26, (3S,4E)-4-formyl-3-(2-oxoethyl)-4-hexenoic acid hexadecyl ester]	36.3	suppressive activity	
	C/C=C(/C=O)[C@@H](CC=O)CC(=O)SCCc1ccccc1 [GS27, S-phenethyl (3S,4E)-4-formyl-3-(2-oxoethyl)hex-4-enethioate]	56.5	suppressive activity	0.0815
	C/C=C(/C=O)[C@@H](CC=O)CC(=O)OCCCSC [GS28, (3S,4E)-4-formyl-3-(2-oxoethyl)-4-hexenoic acid 3-(methylthio)propyl ester]	34.4	suppressive activity	
